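All cell lines were grown in 96-well plates and treated with compound for 48 hours. GI50 is the concentration that inhibits growth by half. TGI is the concentration that stops growth completely.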
Columns and labels:
Assay in all cases: inhibition of tumour cell growth, NCI panel, 48 h
[1] = system: HOP-62 NSCLC
[2] = system: NCI-H23 lung
[3] = system: MOLT-4 leukemia
[4] = system: M19-MEL melanoma
[5] = system: NCI-H226 lung
[6] = system: MALME-3M melanoma
[7] = system: SK-OV-3 ovarian
[8] = system: OVCAR-3 ovarian
[9] = system: SN12C renal
[10] = system: SK-MEL-28 melanoma
[11] = system: SNB-19 CNS
[12] = system: U251 CNS
[13] = system: DLD-1 colon
[14] = system: OVCAR-4 ovarian
[15] = system: UO-31 renal
[16] = system: SNB-75 CNS
[17] = system: TK-10 renal
[18] = system: HCT-15 colon
[19] = system: SNB-78 CNS
[20] = system: DMS 114 small cell lung
[21] = system: RXF 393 renal
[22] = system: UACC-257 melanoma
[23] = system: HL-60(TB) leukemia
[24] = system: OVCAR-5 ovarian
[25] = system: SR leukemia
[26] = system: CAKI-1 renal
[27] = system: NCI-H522 lung
[28] = system: M14 melanoma
[29] = system: HCT-116 colon
[30] = system: CCRF-CEM leukemia
[31] = system: SK-MEL-2 melanoma
[32] = system: EKVX NSCLC
[33] = system: HT29 colon
[34] = system: SF-268 CNS
[35] = system: A549 NSCLC
[36] = system: 786-0 renal
[37] = system: OVCAR-8 ovarian
[38] = system: ACHN renal
[39] = system: LXFL 529 NSCLC
[40] = system: SF-295 CNS
[41] = system: K-562 leukemia
[42] = system: HCC-2998 colon
[43] = system: SK-MEL-5 melanoma
[44] = system: SW-620 colon
[45] = system: NCI-H460 lung
[46] = system: A498 renal
[47] = system: DMS 273 small cell lung
[48] = system: KM12 colon
[49] = system: SF-539 CNS
[50] = system: UACC-62 melanoma
[51] = system: HOP-92 NSCLC
[52] = system: LOX IMVI melanoma
[53] = system: RPMI-8226 leukemia
[54] = system: KM20L2 colon
[55] = system: COLO 205 colon
[56] = system: IGROV1 ovarian

## CCCC12Cc3c(OC)ccc(OC)c3CC(Cc3c(OC)ccc(OC)c31)C2=O (configuration not stated)
[1]
  TGI: > 100 µM
[2]
  TGI: > 100 µM
[3]
  TGI: > 100 µM
[4]
  TGI: > 100 µM
[5]
  TGI: > 100 µM
[6]
  TGI: > 100 µM
[7]
  TGI: > 100 µM
[8]
  TGI: > 100 µM
[9]
  TGI: > 100 µM
[10]
  TGI: > 100 µM
[11]
  TGI: > 100 µM
[12]
  TGI: > 100 µM
[13]
  TGI: > 100 µM
[14]
  TGI: > 100 µM
[15]
  TGI: > 100 µM
[16]
  TGI: > 100 µM
[17]
  TGI: > 100 µM
[18]
  TGI: > 100 µM
[19]
  TGI: > 100 µM
[20]
  TGI: > 100 µM
[21]
  TGI: > 100 µM
[22]
  TGI: > 100 µM
[23]
  TGI: > 100 µM
[24]
  TGI: > 100 µM
[25]
  TGI: > 100 µM
[26]
  TGI: > 100 µM
[27]
  TGI: > 100 µM
[28]
  TGI: > 100 µM
[29]
  TGI: > 100 µM
[30]
  TGI: > 100 µM
[31]
  TGI: > 100 µM
[32]
  TGI: > 100 µM
[33]
  TGI: > 100 µM
[34]
  TGI: > 100 µM
[35]
  TGI: > 100 µM
[36]
  TGI: > 100 µM
[37]
  TGI: > 100 µM
[38]
  TGI: > 100 µM
[39]
  TGI: > 100 µM
[40]
  TGI: > 100 µM
[41]
  TGI: > 100 µM
[42]
  TGI: > 100 µM
[43]
  TGI: > 100 µM
[44]
  TGI: > 100 µM
[45]
  TGI: > 100 µM
[46]
  TGI: > 100 µM
[47]
  TGI: > 100 µM
[48]
  TGI: > 100 µM
[49]
  TGI: > 100 µM

## CC(C)CC(=O)[O-].N.N.N.N.N.[Co+3].[O-][Cl+3]([O-])([O-])[O-]
[1]
  GI50: > 100 µM
  TGI: > 100 µM
[2]
  GI50: > 100 µM
  TGI: > 100 µM
[50]
  GI50: > 100 µM
  TGI: > 100 µM
[3]
  GI50: 70.8 µM
  TGI: > 100 µM
[6]
  GI50: > 100 µM
  TGI: > 100 µM
[7]
  GI50: > 100 µM
  TGI: > 100 µM
[8]
  GI50: > 100 µM
  TGI: > 100 µM
[9]
  GI50: > 100 µM
  TGI: > 100 µM
[10]
  GI50: > 100 µM
  TGI: > 100 µM
[11]
  GI50: > 100 µM
  TGI: > 100 µM
[12]
  GI50: > 100 µM
  TGI: > 100 µM
[13]
  GI50: > 100 µM
  TGI: > 100 µM
[14]
  GI50: > 100 µM
  TGI: > 100 µM
[15]
  GI50: 85.7 µM
  TGI: > 100 µM
[16]
  GI50: 22 µM
  TGI: > 100 µM
[17]
  GI50: > 100 µM
  TGI: > 100 µM
[18]
  GI50: > 100 µM
  TGI: > 100 µM
[19]
  GI50: > 100 µM
  TGI: > 100 µM
[22]
  GI50: > 100 µM
  TGI: > 100 µM
[24]
  GI50: > 100 µM
  TGI: > 100 µM
[27]
  GI50: > 100 µM
  TGI: > 100 µM
[28]
  GI50: > 100 µM
  TGI: > 100 µM
[29]
  GI50: > 100 µM
  TGI: > 100 µM
[30]
  GI50: > 100 µM
  TGI: > 100 µM
[31]
  GI50: > 100 µM
  TGI: > 100 µM
[32]
  GI50: > 100 µM
  TGI: > 100 µM
[33]
  GI50: > 100 µM
  TGI: > 100 µM
[34]
  GI50: > 100 µM
  TGI: > 100 µM
[35]
  GI50: > 100 µM
  TGI: > 100 µM
[51]
  GI50: > 100 µM
  TGI: > 100 µM
[36]
  GI50: > 100 µM
  TGI: > 100 µM
[52]
  GI50: > 100 µM
  TGI: > 100 µM
[37]
  GI50: > 100 µM
  TGI: > 100 µM
[38]
  GI50: > 100 µM
  TGI: > 100 µM
[39]
  GI50: > 100 µM
  TGI: > 100 µM
[40]
  GI50: > 100 µM
  TGI: > 100 µM
[41]
  GI50: > 100 µM
  TGI: > 100 µM
[42]
  GI50: > 100 µM
  TGI: > 100 µM
[43]
  GI50: > 100 µM
  TGI: > 100 µM
[44]
  GI50: > 100 µM
  TGI: > 100 µM
[45]
  GI50: > 100 µM
  TGI: > 100 µM
[53]
  GI50: > 100 µM
  TGI: > 100 µM
[54]
  GI50: > 100 µM
  TGI: > 100 µM
[55]
  GI50: > 100 µM
  TGI: > 100 µM
[56]
  GI50: > 100 µM
  TGI: > 100 µM
[46]
  GI50: > 100 µM
  TGI: > 100 µM
[47]
  GI50: > 100 µM
  TGI: > 100 µM
[48]
  GI50: > 100 µM
  TGI: > 100 µM
[49]
  GI50: > 100 µM
  TGI: > 100 µM

From PubChem BioAssay (NCI)
